Calls of active or inactive are those of the source.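 Rule for the calls: active = maximal inhibition of the USP30 enzyme reaching 30% or more across the dose series; inactive = the rest.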

In the test the target is Ubiquitin carboxyl-terminal hydrolase 30 (Homo sapiens) (UniProt Q70CQ3). As to the kind of experiment: ubiquitin-specific protease 30 DUB inhibitors, concentration-effect, biochemical, validation of primary actives (AID 1645865). Conditions: purified USP30, Ub-rhodamine cleavage, fluorescence, 2 h.
Sequence of Ubiquitin carboxyl-terminal hydrolase 30 (Homo sapiens) (Q70CQ3 whole entry, looked up): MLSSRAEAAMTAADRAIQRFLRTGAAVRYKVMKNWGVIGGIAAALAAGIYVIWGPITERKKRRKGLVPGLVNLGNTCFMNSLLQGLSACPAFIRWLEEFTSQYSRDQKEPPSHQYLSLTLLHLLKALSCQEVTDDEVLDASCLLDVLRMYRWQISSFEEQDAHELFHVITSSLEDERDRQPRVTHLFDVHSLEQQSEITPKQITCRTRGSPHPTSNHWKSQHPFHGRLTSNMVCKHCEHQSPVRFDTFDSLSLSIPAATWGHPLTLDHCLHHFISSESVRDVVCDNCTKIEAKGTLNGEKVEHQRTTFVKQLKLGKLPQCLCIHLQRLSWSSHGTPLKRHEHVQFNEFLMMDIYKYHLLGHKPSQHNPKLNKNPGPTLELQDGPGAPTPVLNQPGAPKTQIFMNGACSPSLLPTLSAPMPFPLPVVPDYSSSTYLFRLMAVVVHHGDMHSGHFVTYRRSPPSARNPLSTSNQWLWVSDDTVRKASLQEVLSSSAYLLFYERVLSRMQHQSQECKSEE

The term IC50 denotes the concentration at which inhibition is half-maximal. `CCOc1ccc(-c2ccc3nnc(SCC(=O)Nc4cccc(C(C)=O)c4)n3n2)cc1`: the concentration for half-maximal inhibition (IC50) was 3.81 µM.
Regarding `C=C(NC(=O)C(=C)NC(=O)c1csc(C2=N[C@@H]3c4csc(n4)[C@H]4NC(=O)c5csc(n5)[C@H]([C@](C)(O)[C@@H](C)O)NC(=O)[C@H]5CSC(=N5)/C(=C/C)NC(=O)C([C@@H](C)O)NC(=O)c5csc(n5)C3(CC2)NC(=O)[C@H](C)NC(=O)C(=C)NC(=O)[C@H](C)NC(=O)C([C@@H](C)CC)N[C@@H]2C=Cc3c(C(C)O)cc(nc3[C@H]2O)C(=O)OC4C)n1)C(N)=O` (stereo partly drawn), the IC50 was > 50 µM (inactive).
With `O=C(Nc1cccc(F)c1)C1CCCN(S(=O)(=O)N2CCCCCC2)C1` (stereo not drawn) the figure was 36.4 µM; with `CCC1=C(c2ccc(C)cc2)S(=O)(=O)NC1=NCC(=O)NC(C)c1ccccc1` (stereo not drawn), 21.1 µM.
The value for `Cc1cc(C)n(-c2cccc(C(=O)Nc3ccc4c(c3)CCN4S(C)(=O)=O)c2)n1` was > 50 µM (inactive); that for `Cc1cc(C)nc(SCCn2c(N3CCC(Cc4ccccc4)CC3)nc3c2c(=O)n(C)c(=O)n3C)n1` was 46.9 µM.
With `COc1ccc(Cl)c(NC(=O)C2CC(=O)Nc3cc(-c4ccccc4)nn32)c1` (stereo not drawn) the figure was 13.2 µM.
For `CC(C)NS(=O)(=O)c1cccc2c(NC(=O)C(Cc3ccccc3)NC(=O)c3ccccc3)cccc12` (stereo not drawn), the half-maximal inhibitory concentration (IC50) was under 0.05 µM.
Consider `Cn1c(CCN2CCCC2)nc2cc(NS(=O)(=O)c3ccccc3)ccc21`, for which the IC50 was > 50 µM (inactive).
As for `COc1ccc(NC(=O)c2sc(N3CCOCC3)nc2-c2ccccc2)c(OC)c1`, the IC50 is 18.9 µM.
With `COc1ccc(S(=O)(=O)N2CCC3(CC2)OC(=O)Nc2ccccc23)cc1` the figure was 37.1 µM; with `COc1c(O)c(O)c2c(=O)cc(-c3ccc(O)cc3)oc2c1OC`, > 50 µM (inactive); with `Cc1sc2ncn3c(=O)n(CC(=O)Nc4ccc(F)c(Cl)c4)nc3c2c1C`, 2.07 µM.
As for `O=C(c1cn(-c2cccc(F)c2)nn1)N1CCc2ccccc2C1`, the concentration for half-maximal inhibition (IC50) was 16.9 µM.
For the molecule `COC1/C=C/OC2(C)Oc3c(C)c(O)c4c(c3C2=O)C(=O)C=C(NC(=O)/C(C)=C\C=C\C(C)C(O)C(C)C(O)C(C)C(OC(C)=O)C1C)C4=O` (stereo not drawn), the IC50 was > 50 µM (inactive).
With `O=C(COc1ccc(Cl)cc1Cl)Nc1ccc2[nH]c(=O)[nH]c2c1`, the concentration for half-maximal inhibition (IC50) is 4.06 µM.
With `O=C(CN1C(=O)NC2(CCCCC2)C1=O)Nc1ccc([N+](=O)[O-])cc1` the figure was 33.5 µM.
With `COc1ccc(CN=C2NS(=O)(=O)C(c3ccc(F)cc3)=C2C)cc1OC` the figure was 25.8 µM; with `O=C(Nc1cccc(-c2nc3ccccc3[nH]2)c1)c1cc2ccccc2oc1=O`, 0.304 µM; with `COC1=C(C2=C(OC)C(=O)c3cc4c(c(O)c3C2=O)C(=O)OC(C)C4)C(=O)c2c(cc3c(c2O)C(=O)OC(C)C3)C1=O` (stereo not drawn), > 50 µM (inactive).
The value for `Cc1ccc(Cn2nnc(C(=O)NCc3ccco3)c2-n2cccc2)cc1` was > 50 µM (inactive); that for `COc1ccc(C(=O)Nc2ccc(S(=O)(=O)N3CCCCC3)cc2)cc1` was > 50 µM (inactive); that for `Cc1nc2cc(NC(=O)C3CN(C(=O)c4cnccn4)C3)ccc2s1` was > 50 µM (inactive).
Turning to `COc1ccc(C(=O)CSc2nnc(-c3cccnc3)n2-c2ccccc2)cc1`, the IC50 was > 50 µM (inactive).
The value for `COc1ccc(CNC(=O)CN2C(=O)CC(c3ccccc3)=Nc3ccccc32)cc1` was 14.6 µM; that for `Cc1ccccc1NC(=O)C(C)n1c(=O)cc(-c2ccccc2)c2c(C)nn(C)c21` (stereo not drawn) was 2.45 µM; that for `O=C(Cc1c[nH]c2ccccc12)Nc1nc2ccccc2s1` was > 50 µM (inactive).
The value for `COc1ccc(-c2ccnc(-c3ccc(OCc4cccc(F)c4)cc3)n2)cc1` was 38.2 µM; that for `Cc1ccc2c(c1C)NC(=O)[C@]21[C@@H]2C(=O)N(c3cccc(Cl)c3)C(=O)[C@@H]2[C@@H]2CCCN21` was > 50 µM (inactive).
With `N#Cc1ccc(Cl)cc1NC(=O)COc1cccnc1[N+](=O)[O-]` the figure was > 50 µM (inactive); with `COc1ccc2nc(-c3ccc(NC(=O)c4cccc(OC)c4OC)cc3)cn2n1`, 1.89 µM.
In the case of `COc1ccccc1S(=O)(=O)N1CC[C@@H]2CN(C)[C@@H]2C1`, the half-maximal inhibitory concentration (IC50) was 32.2 µM.
As for `COc1ccc(NC(=O)C2c3ccccc3C(=O)N(C3CCCC3)C2c2cccs2)cc1OC` (stereo not drawn), the 50% inhibitory concentration (IC50) was 36.2 µM.
With `O=C(Nc1cccc(Cl)c1)N1CCC(c2cc(-c3ccco3)n[nH]2)CC1` the figure was > 50 µM (inactive); with `COc1cc(O)c2c(O)c3c(cc2c1)CC(C)OC3=O` (stereo not drawn), > 50 µM (inactive).
The value for `O=C(Cn1c(=O)n(Cc2ccccc2)c(=O)c2ncccc21)NCc1ccccc1Cl` was > 50 µM (inactive); that for `N#Cc1ccc(Cc2ncc(C(F)(F)F)cc2Cl)s1` was > 50 µM (inactive); that for `COCCNC(=O)c1ccn(-c2ccc3ccc(-c4ccncc4)cn23)n1` was > 50 µM (inactive).
The value for `COc1cc(NC(=O)Cc2ccccc2)ccc1NC(=O)c1cc2ccccc2o1` was 2.32 µM.
For the molecule `O=C1CC(c2cc3c(cc2Br)OCO3)c2cc3c(cc2N1)OCCO3` (stereo not drawn), the IC50 is 19.2 µM.
With `Cc1noc(C)c1S(=O)(=O)Nc1ccc(C(=O)Nc2ccc3c(c2)OCCO3)cc1` the figure was > 50 µM (inactive).
For `COc1ccc(NC(=O)c2nnn(-c3ccccc3F)c2C)cc1OC`, the IC50 is > 50 µM (inactive).
For `CCOc1ccc(CCNC(=O)CCC(=O)Nc2ccc3nc(N4CCN(C)CC4)cc(C)c3c2)cc1OCC`, the IC50 was > 50 µM (inactive).
The value for `Cc1ccc(C2c3cccn3CCN2C(=O)Nc2ccccc2)cc1` (stereo not drawn) was > 50 µM (inactive); that for `CCOC(=O)c1c(C)nc2n(Cc3ccccc3)c3ccccc3n12` was 17.9 µM.
With `O=C(c1nnn(Cc2ccc(Cl)cc2)c1-n1cccc1)N1CCCC1` the figure was > 50 µM (inactive); with `COc1ccc(C(=O)C2CC(=O)Nc3c2c(C)nn3-c2ccc(Br)cc2)cc1` (stereo not drawn), 3.36 µM.
On to `COc1ccc(-n2ccn3c(CCC(=O)NCc4ccc(F)cc4)nnc3c2=O)cc1`, for which the IC50 is 25.9 µM.
With `O=C(Cn1cnc2c(oc3ccccc32)c1=O)NCc1ccccc1Cl` the figure was 35.9 µM; with `Nc1c(-c2ccc(Cl)cc2)cnc2cc(-c3ccc(Cl)c(Cl)c3)nn12`, 1.49 µM.
The value for `COc1cccc(NC(=O)C2Cc3ccccc3N2C(=O)c2ccccc2)c1` (stereo not drawn) was 22.2 µM.
The value for `Cc1nc2ccccn2c1C1(O)C(=O)Nc2c(Cl)cc(Cl)cc21` (stereo not drawn) was > 50 µM (inactive).
On to `CCC(=O)OCc1cnc(C)c2oc(=O)c(-c3nc(-c4ccccc4)no3)cc12`, for which the IC50 was > 50 µM (inactive).
With `COc1cccc(CN2CCc3nc4nc(C)ccc4cc3C2)c1` the figure was > 50 µM (inactive); with `O=C(COc1nc2ccccc2nc1N1CCOCC1)Nc1cccc(S(=O)(=O)N2CCCCC2)c1`, > 50 µM (inactive).
For `Cc1ccc(-c2nc(Cn3cnc4ccccc4c3=O)cs2)cc1`, the IC50 was 4.83 µM.
With `COc1ccc(CNC(=O)C(C)n2nc(-c3ccco3)c(-c3cc(C)no3)cc2=O)cc1` (stereo not drawn) the figure was > 50 µM (inactive); with `CCOc1ccc(CCNC(=O)c2ccc3c(c2)N(CC)C(=O)c2ccccc2S3)cc1OCC`, > 50 µM (inactive); with `O=C(NCc1ccc(-c2nc3cnccc3o2)cc1)c1cc2ccccc2o1`, 2.99 µM.
The value for `Cc1c(OCC(=O)NCC(=O)N2CCC3(O)CCCCC3C2)ccc2c3c(c(=O)oc12)CCCC3` (stereo not drawn) was 23.7 µM.
`CCCc1nc2sc3c(NCCCN4CCOCC4)ncnc3c2c2c1CCC2`: the IC50 is > 50 µM (inactive).
With `CC(=O)Nc1ccc(NC(=O)c2cc(-c3cc(C)cc(C)c3O)n[nH]2)cc1` the figure was 12 µM; with `COc1ccc(N2CCN(Cc3nnnn3Cc3ccc4c(c3)OCO4)CC2)cc1`, > 50 µM (inactive); with `Fc1ccc(Cn2ccc(-c3cnc(-c4ccccc4)s3)n2)cc1`, > 50 µM (inactive).
Consider `NS(=O)(=O)c1ccc(CNS(=O)(=O)c2ccc(-c3ccccn3)s2)cc1`, for which the concentration for half-maximal inhibition (IC50) was 24.5 µM.
The value for `CN(C)c1cccc(C(=O)Nc2cc(-c3cccnc3)no2)c1` was 16.6 µM; that for `CC(OC(=O)c1c2c(nc3ccccc13)CCCCC2)C(=O)Nc1ccc2ccccc2c1` (stereo not drawn) was 2.65 µM.
The value for `Cc1ccccc1NC(=O)c1nc(-c2cn(Cc3ccc(F)cc3)nn2)no1` was 3.46 µM; that for `Cc1ccccc1Cc1nc(-c2ccc(=O)[nH]c2)no1` was > 50 µM (inactive).
The value for `CCCCC/C=C/C=C/C(=O)OC1C(O)CC(c2ccc3c(c2O)C(=O)c2c(O)cc4cc(C)cc(O)c4c2C3=O)OC1C` (stereo not drawn) was > 50 µM (inactive).
For the molecule `COc1cccc2c1OCC(NS(=O)(=O)c1cc(C)ccc1C)C2` (stereo not drawn), the IC50 was > 50 µM (inactive).
For the molecule `CC(C)(C)c1cc(C[C@@H]2C[C@H](NC(=O)N3CCOCC3)C2(C)C)no1`, the IC50 was 22.2 µM.
The value for `COc1cccc(N2CCN(C(=O)C3CCN(c4nc(NC(C)=O)ns4)CC3)CC2)c1` was > 50 µM (inactive).
For `COc1ccc(CNC(=O)CN2C(=O)C(C)=C(c3ccc(C)cc3)S2(=O)=O)cc1`, the IC50 is > 50 µM (inactive).
Take `COc1ccc(NC(=O)C2[C@@H]3C(=O)N(C4CCCCC4)C(=O)[C@@H]3[C@H]3c4ccccc4C=CN23)cc1` (stereo partly drawn): the IC50 is > 50 µM (inactive).
`Cc1nc2ccc(NC(=O)COc3ccccc3[N+](=O)[O-])cc2s1`: the IC50 is 9.57 µM.
The value for `Cc1cnc2nc3c(cc2c1)CN(S(=O)(=O)c1cc(F)ccc1C)CC3` was > 50 µM (inactive).
The value for `O=C(CCn1c(=O)c2sccc2n(CC(=O)OCc2ccccc2)c1=O)NCc1ccc2c(c1)OCO2` was 22.9 µM.
The value for `O=C(Nc1cc(F)ccc1F)c1ccn(COc2ccc(F)c(Cl)c2)n1` was 22 µM; that for `Cc1c(CC(=O)Nc2nn[nH]n2)c(=O)oc2cc3c(cc12)CCC1(CCCCC1)O3` was > 50 µM (inactive); that for `O=C(NCc1ccco1)c1ccc2c(c1)N(Cc1cccc(F)c1)C(=O)c1ccccc1S2` was > 50 µM (inactive).
In the case of `O=C1Oc2nc3ccccc3cc2CN1Cc1ccco1`, the IC50 is 17.2 µM.
The value for `CCCNC(=O)c1ccn(-c2ccc3ccc(-c4cnn(C)c4)cn23)n1` was > 50 µM (inactive).
